Laboratory results taken from US20040047845A1, “Methods and compositions for diagnosis and treatment of cancer based on the transcription factor ets2” (MUSC Foundation For Research Development, priority 1998, published 2004).

Tests used:
[1] = system: LNCaP human prostate cell line; test: Soft agar growth assay, LNCaP; format: cell-based; details: de novo expression of ETS2 in weakly tumorigenic LNCaP
Description: (§1) Transfection of LNCaP was performed in 35-mm wells using 2 μg of DNA and Superfact Reagent (Qiagen, Calif.). Selection for stable LNCaP transfectants was in 450 μg/ml G418. DU145 and PC3 cells were transfected using LipofectAmine ([…]/35 mm well, Life Technologies Inc., Bethesda, Md.). Stable DU145 and PC3 transfectants were expanded in the presence of 300 μg/ml G418.
(§2) Soft agar growth assays were performed in six-well plates (35-mm wells). Cells (20,000) were plated in 0.4% agar (Sigma) in RPMI 1640 supplemented with 10% FBS. An underlayer of 0.8% agar was used to prevent attachment of cells. Triplicate assays initiated with 20,000 cells were fed weekly by agar overlay and scored after 3 weeks. The soft agar assays were performed twice, independently.

DU145 cells = test: Soft agar growth assay (anchorage independent growth), DU145; format: cell-based, human; details: DN-ETS2 transfectants vs DU145 parental cell line, after three weeks
Description: as §1, §2

Molecule	ability to grow in soft agar [1]	anchorage-independent growth in soft agar (DU145 cells)
ETS2: wild type human ETS2 transcription factor, expressed de novo in LNCaP from ETS2 cDNA in sense orientation	increases its ability to grow in soft agar	
DN-ETS2: dominant negative truncated human ETS2 protein, DNA binding domain (C-terminal amino acids 334-469), expressed from plasmid pDN-ETS2 (protein, UniProt P15036 334-469, looked up, fragment) YIQERSDPVEQGKPVIPAAVLAGFTGSGPIQLWQFLLELLSDKSCQSFISWTGDGWEFKLADPDEVARRWGKRKNKPKMNYEKLSRGLRYYYDKNIIHKTSGKRYVYRFVCDLQNLLGFTPEELHAILGVQPDTED		do not grow well in soft agar
